The values that follow come from ChEMBL document CHEMBL1143006, “Examination of acylated 4-aminopiperidine-4-carboxylic acid residues in the phosphotyrosyl+1 position of Grb2 SH2 domain-binding tripeptides” (J Med Chem, 2007).

The target of this assay is Growth factor receptor-bound protein 2 (Homo sapiens, UniProt P62993). Briefly: Binding affinity to Grb2-SH2 domain by surface plasmon resonance. For orientation: In SPR one partner is held on a chip, and binding of the other changes the refractive index at the surface.
Growth factor receptor-bound protein 2, sequence (P62993 whole entry, the tested form may be a part): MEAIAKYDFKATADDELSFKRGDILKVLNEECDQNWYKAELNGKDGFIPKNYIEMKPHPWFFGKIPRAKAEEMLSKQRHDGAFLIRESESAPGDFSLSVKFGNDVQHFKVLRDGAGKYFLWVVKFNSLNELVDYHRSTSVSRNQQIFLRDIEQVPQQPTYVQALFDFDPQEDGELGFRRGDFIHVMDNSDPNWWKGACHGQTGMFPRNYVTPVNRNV
In general, Kd refers to the constant that tells how readily two partners part at equilibrium. On to `NC(=O)C[C@H](NC(=O)C1(NC(=O)[C@@H](CC(=O)O)Cc2ccc(CP(=O)(O)O)cc2)CCN(C(=O)NCCc2ccccc2)CC1)C(=O)NCCCc1ccc2ccccc2c1`, for which the Kd came out at 0.272 µM.
Under `COCCOC(=O)N1CCC(NC(=O)[C@@H](CC(=O)O)Cc2ccc(CP(=O)(O)O)cc2)(C(=O)N[C@@H](CC(N)=O)C(=O)NCCCc2ccc3ccccc3c2)CC1` stands 0.202 µM; under `NC(=O)C[C@H](NC(=O)C1(NC(=O)[C@@H](CC(=O)O)Cc2ccc(CP(=O)(O)O)cc2)CCN(C(=O)OCc2ccccc2)CC1)C(=O)NCCCc1ccc2ccccc2c1`, 0.32 µM.
The compound `NC(=O)C[C@H](NC(=O)C1(NC(=O)[C@@H](CC(=O)O)Cc2ccc(CP(=O)(O)O)cc2)CCN(C(=O)OCc2ccc(C(=O)O)cc2)CC1)C(=O)NCCCc1ccc2ccccc2c1` returned a Kd of 0.871 µM.
`NC(=O)C[C@H](NC(=O)C1(NC(=O)[C@@H](CC(=O)O)Cc2ccc(CP(=O)(O)O)cc2)CCN(C(=O)CCCCc2ccccc2)CC1)C(=O)NCCCc1ccc2ccccc2c1`: the Kd stood at 2.18 µM.
With `Cc1ccc2c(ccn2CCC(=O)N2CCC(NC(=O)[C@@H](CC(=O)O)Cc3ccc(CP(=O)(O)O)cc3)(C(=O)N[C@@H](CC(N)=O)C(=O)NCCCc3ccc4ccccc4c3)CC2)c1`, the affinity, expressed as Kd, was 0.458 µM.
`NC(=O)C[C@H](NC(=O)C1(NC(=O)[C@@H](CC(=O)O)Cc2ccc(CP(=O)(O)O)cc2)CCN(C(=O)CCCc2ccccc2)CC1)C(=O)NCCCc1ccc2ccccc2c1` showed a Kd of 0.027 µM.
Under `NC(=O)C[C@H](NC(=O)C1(NC(=O)[C@@H](CC(=O)O)Cc2ccc(CP(=O)(O)O)cc2)CCN(S(=O)(=O)CCc2ccccc2)CC1)C(=O)NCCCc1ccc2ccccc2c1` stands 2.14 µM; under `COC(=O)N1CCC(NC(=O)[C@@H](CC(=O)O)Cc2ccc(CP(=O)(O)O)cc2)(C(=O)N[C@@H](CC(N)=O)C(=O)NCCCc2ccc3ccccc3c2)CC1`, 0.106 µM.
As for `NC(=O)C[C@H](NC(=O)C1(NC(=O)[C@@H](CC(=O)O)Cc2ccc(CP(=O)(O)O)cc2)CCN(C(=O)OCCc2ccccc2)CC1)C(=O)NCCCc1ccc2ccccc2c1`, the affinity, expressed as Kd, was 0.036 µM.
